Consider 28 compounds from ChEMBL document CHEMBL1817545, “Synthesis and molecular modeling of 1H-pyrrolopyrimidine-2,4-dione derivatives as ligands for the α1-adrenoceptors” (Bioorg Med Chem, 2011).

For experiment [1], the target named is T1, Adrenergic receptor alpha-1 (Rattus norvegicus, UniProt P15823+P23944+P43140).
T1 sequence (P15823 whole entry): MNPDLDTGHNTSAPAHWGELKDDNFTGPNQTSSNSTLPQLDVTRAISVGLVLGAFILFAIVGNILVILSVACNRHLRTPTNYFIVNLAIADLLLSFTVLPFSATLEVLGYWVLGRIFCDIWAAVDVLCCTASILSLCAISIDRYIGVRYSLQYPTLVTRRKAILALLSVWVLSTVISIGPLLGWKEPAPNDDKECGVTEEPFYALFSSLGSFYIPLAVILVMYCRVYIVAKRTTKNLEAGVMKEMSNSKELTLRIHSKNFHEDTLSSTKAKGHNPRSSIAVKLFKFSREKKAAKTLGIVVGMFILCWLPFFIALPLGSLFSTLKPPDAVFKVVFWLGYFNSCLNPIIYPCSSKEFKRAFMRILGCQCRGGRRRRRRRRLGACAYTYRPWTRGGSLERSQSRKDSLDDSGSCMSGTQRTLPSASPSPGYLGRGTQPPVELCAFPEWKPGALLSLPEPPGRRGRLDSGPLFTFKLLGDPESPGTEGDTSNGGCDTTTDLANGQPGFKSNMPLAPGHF
T1 sequence (P23944 whole entry): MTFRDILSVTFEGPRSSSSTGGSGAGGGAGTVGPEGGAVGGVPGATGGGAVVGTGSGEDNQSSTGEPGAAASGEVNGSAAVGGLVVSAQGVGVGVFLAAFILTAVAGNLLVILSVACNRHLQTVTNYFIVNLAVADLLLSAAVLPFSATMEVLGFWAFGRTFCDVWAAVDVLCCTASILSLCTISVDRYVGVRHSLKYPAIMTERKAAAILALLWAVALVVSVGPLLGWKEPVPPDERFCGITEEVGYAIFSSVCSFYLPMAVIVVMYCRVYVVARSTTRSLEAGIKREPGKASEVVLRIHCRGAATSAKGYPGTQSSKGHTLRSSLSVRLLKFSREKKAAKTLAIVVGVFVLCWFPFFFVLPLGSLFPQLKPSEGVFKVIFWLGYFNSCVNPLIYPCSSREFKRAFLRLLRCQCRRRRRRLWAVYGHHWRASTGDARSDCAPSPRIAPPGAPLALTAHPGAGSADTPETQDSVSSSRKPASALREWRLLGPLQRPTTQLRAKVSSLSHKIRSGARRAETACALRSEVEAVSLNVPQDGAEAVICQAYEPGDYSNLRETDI
T1 sequence (P43140 whole entry): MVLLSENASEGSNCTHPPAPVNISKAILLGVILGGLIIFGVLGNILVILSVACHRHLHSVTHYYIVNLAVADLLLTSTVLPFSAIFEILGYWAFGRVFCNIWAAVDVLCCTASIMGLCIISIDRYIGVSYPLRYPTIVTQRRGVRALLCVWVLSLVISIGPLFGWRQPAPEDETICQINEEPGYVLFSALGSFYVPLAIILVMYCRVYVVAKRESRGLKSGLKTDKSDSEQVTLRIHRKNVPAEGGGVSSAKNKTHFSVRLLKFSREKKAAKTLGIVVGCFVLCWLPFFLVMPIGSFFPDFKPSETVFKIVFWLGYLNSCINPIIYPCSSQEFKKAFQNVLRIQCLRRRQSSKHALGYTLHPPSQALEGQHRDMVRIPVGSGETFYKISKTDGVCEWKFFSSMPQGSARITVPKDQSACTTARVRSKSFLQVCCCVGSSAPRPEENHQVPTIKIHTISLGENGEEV
Nature of the experiment: Displacement of [3H]prazosin from alpha1-ARs in CRL:CD(SD)BR-COBS rat brain cortex after 30 mins by liquid scintillation spectrometry. (In general: Displacement assays read how much labelled ligand stays bound in the presence of the test substance.)

Experiment [2] has as its target T2, 5-hydroxytryptamine receptor 1A (Rattus norvegicus, UniProt P19327).
T2 sequence (P19327 whole entry): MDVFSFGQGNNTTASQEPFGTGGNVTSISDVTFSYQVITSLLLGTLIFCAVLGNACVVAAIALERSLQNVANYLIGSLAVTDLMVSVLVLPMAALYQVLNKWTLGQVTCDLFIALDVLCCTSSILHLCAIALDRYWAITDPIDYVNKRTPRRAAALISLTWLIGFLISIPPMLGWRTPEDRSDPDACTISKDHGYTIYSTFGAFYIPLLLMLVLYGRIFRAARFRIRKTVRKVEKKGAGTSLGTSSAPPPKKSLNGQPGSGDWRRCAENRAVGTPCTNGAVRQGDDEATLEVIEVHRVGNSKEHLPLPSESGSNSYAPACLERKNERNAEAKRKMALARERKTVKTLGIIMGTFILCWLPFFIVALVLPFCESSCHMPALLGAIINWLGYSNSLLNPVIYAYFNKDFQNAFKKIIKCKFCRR
The experiment can be described thus: Displacement of [3H]-8-OH-DPAT from 5HT1A in CRL:CD(SD)BR-COBS rat brain hippocampus after 30 mins by liquid scintillation spectrometry. The experiment is classed as tissue-based.

The species named for the next experiment is Rattus norvegicus. Nature of the experiment: Ratio of Ki for CRL:CD(SD)BR-COBS rat brain hippocampus 5HT1A to Ki for CRL:CD(SD)BR-COBS rat brain cortex alpha1-AR. It counts as tissue-based.

Structures are written as SMILES.

The term Ki denotes a dissociation constant, usually derived from enzyme kinetics or from competition with a known ligand. Higher therefore signals lower affinity. Take `COc1ccccc1N1CCN(CCn2c(=O)[nH]c3c(-c4ccccc4)c[nH]c3c2=O)CC1`: the inhibition constant Ki in experiment [1] turned out to be 2.08 nM; in experiment [2], 13.4 nM. For the same compound, in the experiment filed under Rattus norvegicus, the Ratio Ki stood at 6.44.

Consider `O=c1[nH]c2[nH]c(-c3ccc(OCCOc4ccccc4)cc3)cc2c(=O)n1CCN1CCN(c2ccccc2Cl)CC1`, for which the figures for the Ki in experiment [1] and in experiment [2] were 126 nM and over 10000 nM, respectively. For the same compound, the Ratio Ki in the experiment listed under Rattus norvegicus was over 79.

With `O=c1[nH]c2c(-c3ccc(Cl)cc3)c[nH]c2c(=O)n1CCN1CCN(c2ccccc2Cl)CC1`, the Ki is 2.71 nM in experiment [1] and over 10000 nM in experiment [2]. For the same compound, the Ratio Ki in the experiment listed under Rattus norvegicus was over 3500.

On to `O=c1[nH]c2[nH]c(-c3ccc(OCc4ccccc4)cc3)cc2c(=O)n1CCN1CCN(c2ccccc2Cl)CC1`, for which the Ki in experiment [1] is 70.91 nM; in experiment [2], over 10000 nM. In addition, the Ratio Ki in the experiment listed under Rattus norvegicus is over 141.

With `O=c1[nH]c2c(-c3ccccc3Cl)c[nH]c2c(=O)n1CCN1CCN(c2ccccc2Cl)CC1`, the Ki in experiment [1] is 1.14 nM; in experiment [2] it was 81.5 nM. Further, the Ratio Ki in the experiment listed under Rattus norvegicus came to 71.5.

Take `Cc1ccc(-c2c[nH]c3c(=O)n(CCN4CCN(c5ccccc5Cl)CC4)c(=O)[nH]c23)cc1`: the inhibitory constant (Ki) in experiment [1] is 4.96 nM; in experiment [2], over 10000 nM. In addition, in the experiment filed under Rattus norvegicus, the Ratio Ki is over 2000.

On to `O=c1c2cc(-c3ccccc3)[nH]c2n(Cc2ccccc2)c(=O)n1CCN1CCN(c2ccccc2Cl)CC1`, for which the Ki stood at 35.41 nM in experiment [1] and 1020 nM in experiment [2]. In addition, the Ratio Ki in the experiment listed under Rattus norvegicus amounted to 28.8.

Regarding `COc1ccccc1N1CCN(CCn2c(=O)[nH]c3[nH]c(-c4ccc(OCCOc5ccccc5)cc4)cc3c2=O)CC1`, the values for the Ki in experiment [1] and in experiment [2] were 53.63 nM and over 10000 nM, respectively. The Ratio Ki in the experiment listed under Rattus norvegicus was over 186.

For `COc1ccccc1N1CCN(CCn2c(=O)[nH]c3cc(-c4ccco4)[nH]c3c2=O)CC1`, the figures for the inhibition constant Ki in experiment [1] and in experiment [2] were 3.38 nM and 28.9 nM, respectively. Also, in the experiment listed under Rattus norvegicus, the Ratio Ki turned out to be 8.54.

Take `COc1ccccc1N1CCN(CCn2c(=O)c3cc(-c4ccccc4)[nH]c3n(Cc3ccccc3)c2=O)CC1`: the inhibition constant (Ki) came to 24.5 nM in experiment [1] and 198 nM in experiment [2]. In addition, the Ratio Ki in the experiment listed under Rattus norvegicus came out at 8.08.

`CC(C)(C)c1cc2[nH]c(=O)n(CCN3CCN(c4ccccc4Cl)CC3)c(=O)c2[nH]1`: the Ki in experiment [1] came out at 1.39 nM; in experiment [2] it was 65.1 nM. Further, in the experiment filed under Rattus norvegicus, the Ratio Ki worked out at 46.9.

Turning to `O=c1[nH]c2[nH]c(-c3ccccc3)c(-c3ccccc3)c2c(=O)n1CCN1CCN(c2ccccc2Cl)CC1`, the figures for the Ki in experiment [1] and in experiment [2] were 11.9 nM and 1540 nM, respectively. In addition, the Ratio Ki in the experiment listed under Rattus norvegicus turned out to be 129.

As to `COc1ccccc1N1CCN(CCn2c(=O)[nH]c3[nH]c(-c4ccc(Oc5ccccc5)cc4)cc3c2=O)CC1`, the figures for the Ki in experiment [1] and in experiment [2] were 43.71 nM and 17.1 nM, respectively. Also, in the experiment listed under Rattus norvegicus, the Ratio Ki came to 0.39.

As to `COc1ccccc1N1CCN(CCn2c(=O)[nH]c3cc(C(C)(C)C)[nH]c3c2=O)CC1`, the Ki in experiment [1] stood at 1.69 nM; in experiment [2], 46.7 nM. In the experiment filed under Rattus norvegicus, the Ratio Ki is 27.7.

As to `COc1ccc(-c2cc3c(=O)n(CCN4CCN(c5ccccc5OC)CC4)c(=O)n(Cc4ccccc4OC)c3[nH]2)cc1`, the Ki was determined as 15.86 nM in experiment [1] and 184 nM in experiment [2]. Further, in the experiment filed under Rattus norvegicus, the Ratio Ki was 11.6.

Turning to `O=c1[nH]c2cc(-c3ccc(Cl)cc3)[nH]c2c(=O)n1CCN1CCN(c2ccccc2Cl)CC1`, the Ratio Ki in the experiment filed under Rattus norvegicus was over 800.

`O=c1[nH]c2cc(-c3ccco3)[nH]c2c(=O)n1CCN1CCN(c2ccccc2Cl)CC1`: the Ki is 14.17 nM in experiment [1] and 220 nM in experiment [2]. For the same compound, the Ratio Ki in the experiment listed under Rattus norvegicus turned out to be 15.5.

On to `COc1ccccc1N1CCN(CCn2c(=O)[nH]c3[nH]c(-c4ccc(OCc5ccccc5)cc4)cc3c2=O)CC1`, for which the results for the Ki in experiment [1] and in experiment [2] were 10.31 nM and 784 nM, respectively. Further, in the experiment listed under Rattus norvegicus, the Ratio Ki came out at 76.

As to `O=c1[nH]c2[nH]c(-c3ccc(Cl)cc3)cc2c(=O)n1CCN1CCN(c2ccccc2Cl)CC1`, the values for the Ki in experiment [1] and in experiment [2] were 2.64 nM and 1510 nM, respectively. Further, the Ratio Ki in the experiment filed under Rattus norvegicus is over 500.

With `COc1ccccc1N1CCN(CCn2c(=O)[nH]c3[nH]c(-c4ccc(Cl)cc4)cc3c2=O)CC1`, the inhibition constant Ki in experiment [1] turned out to be 4.08 nM; in experiment [2], 401 nM. The Ratio Ki in the experiment listed under Rattus norvegicus turned out to be 98.4.

Turning to `COc1ccccc1N1CCN(CCn2c(=O)[nH]c3cc(-c4ccc(Cl)cc4)[nH]c3c2=O)CC1`, the Ratio Ki in the experiment filed under Rattus norvegicus was over 1000.

On to `COc1ccccc1N1CCN(CCn2c(=O)[nH]c3[nH]c(-c4ccccc4)c(-c4ccccc4)c3c2=O)CC1`, for which the Ki in experiment [1] is 4.82 nM; in experiment [2], 466 nM. Moreover, in the experiment filed under Rattus norvegicus, the Ratio Ki stood at 96.7.

For `O=c1[nH]c2[nH]c(-c3ccc(Oc4ccccc4)cc3)cc2c(=O)n1CCN1CCN(c2ccccc2Cl)CC1`, the Ki was determined as 125 nM in experiment [1] and 4720 nM in experiment [2]. The Ratio Ki in the experiment listed under Rattus norvegicus came to 37.8.

As for `O=c1[nH]c2c(-c3ccccc3)c[nH]c2c(=O)n1CCN1CCN(c2ccccc2Cl)CC1`, the Ki in experiment [1] is 1.14 nM; in experiment [2], 43.1 nM. In addition, the Ratio Ki in the experiment listed under Rattus norvegicus is 37.8.

In the case of `COc1ccccc1N1CCN(CCn2c(=O)[nH]c3c(-c4ccc(Cl)cc4)c[nH]c3c2=O)CC1`, the figures for the Ki in experiment [1] and in experiment [2] were 3.36 nM and 32.6 nM, respectively. Besides, in the experiment listed under Rattus norvegicus, the Ratio Ki is 9.7.

On to `COc1ccc(-c2cc3c(=O)n(CCN4CCN(c5ccccc5Cl)CC4)c(=O)n(Cc4ccccc4OC)c3[nH]2)cc1`, for which the inhibition constant Ki stood at 89.2 nM in experiment [1] and 4670 nM in experiment [2]. Also, the Ratio Ki in the experiment listed under Rattus norvegicus is 52.3.

In the case of `O=c1[nH]c2[nH]c(-c3ccc(-c4ccccc4)cc3)cc2c(=O)n1CCN1CCN(c2ccccc2Cl)CC1`, the values for the Ki in experiment [1] and in experiment [2] were 183 nM and over 10000 nM, respectively. Moreover, the Ratio Ki in the experiment filed under Rattus norvegicus is over 54.6.

For `COc1ccccc1N1CCN(CCn2c(=O)[nH]c3[nH]c(-c4ccc(-c5ccccc5)cc4)cc3c2=O)CC1`, the figures for the Ki in experiment [1] and in experiment [2] were 54.3 nM and 3680 nM, respectively. The Ratio Ki in the experiment listed under Rattus norvegicus stood at 67.8.
